Source: patent US12336980B2, “Dosing regimen for a selective S1P1 receptor agonist” (Vanda Pharmaceuticals Inc., priority 2014, dated 2025)

Legend:
Assay type in all cases: in vivo, human
[1] = test system: healthy subjects; test: Safety and tolerability, adverse events
Experimental: (§1) In a single-center, double-blind, placebo-controlled, randomized, two-way cross-over study, 32 healthy subjects (15 males) received placebo on Day 1 followed by multiple-dose administration of either ponesimod or placebo (ratio 3:1). Ponesimod was administered alternately using regimen A (incremental dose increase from 2 to 20 mg) or B (10 mg for 7 days followed by a single-dose administration of 20 mg). Cardiodynamic (Holter and 12-lead ECG), pharmacokinetic, pharmacodynamic (total lymphocyte count), and safety variables were assessed.
(§2) The enrolled subjects came to the study center for each treatment period on Day −2 and participated in a run-in (all study procedures performed without study drug administration) on Day −1. On Day 1, subjects were randomized to one of the two possible sequences of the two up-titration regimens A and B (ratio 1:1). On Day 1, all subjects received placebo; the first study drug administration (or its matching placebo) occurred on Day 2. Regimen A consisted of the novel up-titration regimen: ponesimod was administered once daily (o.d.) orally at a dose of 2 mg on Day 2 and Day 3, 3 mg on Day 4 and Day 5, 4 mg on Day 6 and Day 7, 5 mg on Day 8, 6 mg on Day 9, 7 mg on Day 10, 8 mg on Day 11, 9 mg on Day 12, 10 mg on Day 13 and Day 14, and 20 mg on Day 15. The reference regimen (regimen B) was based on previous studies (Olsson T. et al., Oral ponesimod in relapsing-remitting multiple sclerosis: a randomised phase II trial. J Neurol Neurosurg Psychiatry. 2014; 85 (11): 1198-1208; and Vaclavkova A. et al., Oral ponesimod in patients with chronic plaque psoriasis: a randomised, double-blind, placebo-controlled phase 2 trial. Lancet. 2014; 384 (9959): 2036-2045) and consisted of an o.d. oral administration of ponesimod at a dose of 10 mg for 7 days (i.e., from Day 2 to Day 8) and 20 mg on Day 9. From Day 10 to Day 15 subjects received o.d. the matching placebo. In the placebo group (1:1 sex ratio), subjects received placebo from Day 1 to Day 15. All treatments were administered at the same time in the morning (fasted condition) with approximately 240 mL of water.
(§3) Safety and tolerability were evaluated by monitoring adverse events (AEs), vital signs measurements (supine blood pressure), pulmonary function tests (PFTs; i.e., FEV1 and FVC), clinical laboratory, physical, and neurological examinations. Recording of blood pressure was performed at the same time-points as 12-lead ECG.

[2] = test system: healthy subjects; test: Holter ECG, mean hourly heart rate and AUEC, two-way cross-over up-titration study; conditions: for mean hourly HR change from baseline at nadir (Holter): p <0.05 vs. baseline; for mean hourly HR change from baseline (Holter): Day 3, 2 h post-dose
Experimental: as §1, §2
Cardiodynamic endpoints were assessed using Holter and 12-lead ECG. The 24-h Holter recordings were performed on Day -1, Day 1, Day 2, Day 9, Day 13, and Day 15. The 12-h Holter recordings were performed on the other days. In addition, Holter data were used to estimate the area under the effect curve (AUEC) for HR. 12-lead ECGs were performed from Day −1 to Day 16 at pre-dose and 1, 2, 3, 4, 5, 6, 8, 10, and 12 h after study drug administration. An additional 12-lead ECG recording was performed at EOFP and EOS. Heart rate nadir, Emax (maximum decrease of mean hourly HR from baseline, which was defined as the mean of the time-matched assessments measured on Day −1 and Day 1 pre-dose), and occurrence of values of interest (HR <45 bpm, HR decrease from baseline >20 bpm, and PR interval increase from baseline >20 ms), and AV-blocks (i.e., PR interval >210 ms) were obtained with 12-lead ECG.
Cardiodynamic and pharmacodynamic data are expressed as mean±SD. Repeated measure one-way ANOVAs followed by Tukey's multiple-comparisons tests were used to perform inter-group (i.e., placebo vs. regimen A vs. regimen B) comparisons. Student's t-tests were employed to perform intra-group (baseline vs. treatment) comparisons. Differences were considered to be statistically significant at p <0.05. SAS® version 9.2 (SAS Institute, Cary, NC, USA) was used for the statistical analysis and descriptive statistics of clinical data.

[3] = test system: healthy subjects; test: Pulmonary function tests and clinical laboratory (hematology); conditions: hemoglobin, hematocrit, red blood cell count, basophils, eosinophils, neutrophils, monocytes, platelet count
Experimental: as §3

[4] = test system: peripheral blood lymphocytes; test: Repeated daily oral dosing, number of peripheral blood lymphocytes (background finding); conditions: repeated daily oral dosing of 5 mg or more to humans

effect on PFT variables and hematology variables [3]: No treatment effect
SMILES: CCC/N=C1\S/C(=C\c2ccc(OC[C@H](O)CO)c(Cl)c2)C(=O)N1c1ccccc1C [ponesimod, (R)-5-[3-chloro-4-(2,3-dihydroxy-propoxy)-benz[Z]ylidene]-2-([Z]-propylimino)-3-o-tolyl-thiazolidin-4-one]
time of serious AE of atrial fibrillation after administration ([1]; 20 mg ponesimod (regimen B)): 6 h | time to resolution of serious AE of atrial fibrillation without sequelae ([1]; 20 mg ponesimod (regimen B)): ≤ 24 h | serious AE ([1]; after 20 mg ponesimod (regimen B)): One serious AE of atrial fibrillation | intensity of AEs ([1]; all treatment groups): mild to moderate | most commonly reported AEs ([1]; on ponesimod, also among the most common in the placebo group): headache, dizziness, and procedural site reaction | AEs of special interest related to cardiac function (sinus bradycardia and palpitations) ([1]; regimen B vs regimen A): reported more frequently during regimen B compared to regimen A | time for mean hourly HR to return to pre-dose values after administration ([2]; Day 2 first dose, regimens A and B): 4 to 5 h | decrease in mean hourly HR following administration ([2]; Day 4 to last day of treatment): no further significant decreases | mean hourly HR change from baseline at nadir (Holter) ([2]; regimen A (2 mg), Day 2 first dose, 2 h post-dose, mean±SD): −6±7.4 bpm | mean hourly HR change from baseline (Holter) ([2]; regimen A (2 mg), mean±SD): −8±5.3 bpm | mean AUEC0-12 for HR ([2]; regimen A, Day 2 first administration, mean±SD): −70.7±38.7 bpm·h | time of nadir of mean hourly HR after administration ([2]; regimen A, Day 2 first dose): 2 h | mean AUEC0-12 for HR ([2]; regimen A, Day 3, mean±SD): −105.5±49.0 bpm·h | mean hourly HR change from baseline at nadir (Holter) ([2]; regimen B (10 mg), Day 2 first dose, 3 h post-dose, mean±SD): −12±6.9 bpm | mean hourly HR change from baseline (Holter) ([2]; regimen B (10 mg), mean±SD): −9±5.7 bpm | mean AUEC0-12 for HR ([2]; regimen B (ponesimod 10 mg), Day 3, mean±SD): −146.6±59.8 bpm·h | mean AUEC0-12 for HR ([2]; regimen B, Day 2 first administration, mean±SD): −128.6±63.3 bpmh | time of nadir of mean hourly HR after administration ([2]; regimen B, Day 2 first dose): 3 h | reduction in the number of peripheral blood lymphocytes [4]: consistent, sustained, and dose-dependent reduction
